# In patent US6858638B2, “Substituted indazoles, compositions containing them, method of production and use” (Aventis Pharma S.A., priority 2002, dated 2005):
# Target: CDK2/cyclinE kinase (Homo sapiens, UniProt P24941)
# Assay: CDK2/cyclinE kinase phosphorylation of Rb-biotinylated peptide, scintillation plates
# Assay type: biochemical
# Settings: read-out: CDK2 % inhib at 10 μM
# Method: The inhibition of the CDK2/cyclinE kinase is evaluated by measuring the phosphorylation of the peptide substrate Rb-biotinylated, detected by […], in 96-well scintillation plates (Flashplates) coated with streptavidin.
# Each point is assayed in duplicate.
# Sequence of the Rb-biotinylated peptide: Biotin-[…]-OH
# Protocol: • 1. Preparation of the substrate: fresh solution at 1 mg/ml in PBS. • 2. Introduce 4 μg per well into the scintillation plate. • 3. Incubate for 2 hours at ambient temperature. • 4. Prepare series of dilutions at 1 mM, 300 μM, 100 μM, 30 μM and 10 μM in DMSO from a stock solution of inhibitor at 10 mM in DMSO. • 5. Wash the scintillation plate with 3 times 300 μl of PBS to remove the unbound peptide substrate. • 6. Add the CDK2/cyclinE kinase: 200 ng per well, in 90 μl of kinase buffer (with the exception of the “without enzyme” control wells). • 7. Add the test inhibitor to each of the wells, at a final concentration for 100 μl of 10 μM, 3 μM, 1 μM, 0.3 μM and 0.1 μM. • 8. Agitate the scintillation plate gently for 1 minute. • 9. Incubate for 30 minutes on ice. • 10. Initiate the reaction with 10 μl of kinase buffer having a final concentration per well of 1 μM of cold ATP and of 1 μCi of ATP-^33P. • 11. […] Indirect measurement of the radioactivity corresponding to the incorporation of ATP-^33P, originating from the kinase, into the phosphorylation site of Rb. […]
row,inhibition at 10 µM,SMILES
1,73%,"CS(=O)(=O)c1ccccc1S(=O)(=O)Nc1ccc2[nH]nc(-c3ccc(Cl)cc3)c2c1 [Example 30, N-[3-(4-Chlorophenyl)-1H-indazol-5-yl]-2-methylsulfonylbenzenesulfonamide]"
2,39%,"Nc1n[nH]c2ccc(NS(=O)(=O)c3cccc(F)c3)cc12 [Example 26, N-(3-Amino-1H-indazol-5-yl)-3-fluorobenzenesulfonamide]"
